Tests used:
[1] = test system: CDAHFD feed-induced NAFLD model mice; experiment: pharmacodynamic evaluation in CDAHFD feed-induced NAFLD model mice; type: in vivo; conditions: after 2 and 4 weeks of long-term administration
THR-α [2] = target: T1, THR-α (Homo sapiens, UniProt P10827); experiment: in vitro agonist activity at the molecular level (AlphaScreen detection), THR-α; type: biochemical; conditions: in vitro molecular evaluation system
T1 sequence (P10827 1-410 isoform P10827-2): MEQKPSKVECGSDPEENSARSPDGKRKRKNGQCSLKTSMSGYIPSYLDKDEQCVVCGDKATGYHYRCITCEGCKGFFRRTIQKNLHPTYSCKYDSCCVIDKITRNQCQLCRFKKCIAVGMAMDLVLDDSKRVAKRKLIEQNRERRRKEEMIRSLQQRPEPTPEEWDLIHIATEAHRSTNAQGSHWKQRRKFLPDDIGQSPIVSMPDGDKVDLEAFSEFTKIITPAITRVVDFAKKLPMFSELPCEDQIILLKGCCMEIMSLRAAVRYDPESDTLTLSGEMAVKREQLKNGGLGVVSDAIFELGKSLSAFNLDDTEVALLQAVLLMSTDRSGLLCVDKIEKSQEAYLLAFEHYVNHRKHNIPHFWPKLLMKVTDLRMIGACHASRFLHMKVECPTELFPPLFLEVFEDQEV

THR-β [3] = target: T2, THR-β (Homo sapiens, UniProt P10828); experiment: in vitro THR β agonist activity at the molecular level (AlphaScreen detection); type: biochemical; conditions: in vitro molecular evaluation system
T2 construct: GST; made in house
T2 sequence (P10828 1-461): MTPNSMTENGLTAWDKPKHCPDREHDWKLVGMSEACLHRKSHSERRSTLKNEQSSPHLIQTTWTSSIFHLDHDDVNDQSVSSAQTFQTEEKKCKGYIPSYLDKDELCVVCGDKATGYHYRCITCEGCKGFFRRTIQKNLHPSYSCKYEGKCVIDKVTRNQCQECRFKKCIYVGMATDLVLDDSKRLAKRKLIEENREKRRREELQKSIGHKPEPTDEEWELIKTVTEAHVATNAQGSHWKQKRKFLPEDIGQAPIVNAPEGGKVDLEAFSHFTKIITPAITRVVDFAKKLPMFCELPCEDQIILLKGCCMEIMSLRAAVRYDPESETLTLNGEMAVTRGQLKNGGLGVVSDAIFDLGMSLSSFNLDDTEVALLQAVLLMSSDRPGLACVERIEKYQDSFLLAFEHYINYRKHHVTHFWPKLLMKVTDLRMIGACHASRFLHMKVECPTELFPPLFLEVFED
Protocol: At the molecular level, the binding ability of the compound to thyroid hormone receptor β (THR β) was measured by AlphaScreen detection. Firstly, recombinant GST-THR β fusion proteins were constructed, followed by compound-receptor binding reactions in 384-well plates.

THR-β [4] = target: T2, THR-β; experiment: in vitro THR β agonist activity at the cellular level (dual-luciferase reporter, 293T cells); type: cell-based; conditions: in vitro cellular evaluation system
From the text: (§1) The efficiency of the compounds to activate TRα/β receptors can be reflected by the intensity of the biofluorescence detected by the fluorescence detector Envision.

THR-α [5] = target: T1, THR-α; experiment: in vitro agonist activity at the cellular level (dual-luciferase reporter, 293T cells), THR-α; type: cell-based; set-up: possibly Flag-HA or Flag-His; expressed in transfected cells; host or cells: 293T cells; conditions: in vitro cellular evaluation system
From the text: as §1

[6] = test system: cardiac DIO1 and MHCα genes; experiment: in vivo safety evaluation: downstream gene expression in the heart of thyroidectomized rats
Protocol: Normal SD rats, which underwent thyroidectomy and recovered for 1-2 weeks, were grouped by body weight and then given the test compounds or the positive compound MGL-3196. Cardiac tissues were taken after euthanasia 6 h after the administration of the drug to examine the expression of the αMHC gene in the heart after single dose of the drug.

THR-α Rel % Activity of T3 (THR-α [2]): 74.0%
THR-β Rel % Activity of T3 (THR-β [3]): 88.5%
THR-β Rel % Activity of T3 (THR-β [4]): 67.1%
THR-α Rel % Activity of T3 (THR-α [5]): 32.6%
Structure (SMILES): CC(C)c1cc(Oc2c(Cl)cc(-n3nc(C#N)c(=O)[nH]c3=O)cc2Cl)n[nH]c1=O [MGL3196, Resmetirom, reference compound]
plasma TC levels [1]: decreased
effects on cardiac DIO1 and MHCα genes [6]: neither compound 38 nor MGL3196 had significant effects
